# Data published in patent publication US12728112B2, “Application of sesquiterpene lactone in preparing drug for treating optic neuritis” (ACCENDATECH LUOYANG CO., LTD., priority 2020, dated 2026).
# Entries after “also recorded” stand apart in the source; their conditions may differ.
# Legend:
# [1] = test system: Lewis rat NMO disease models; experiment: NMO animal model: NMO patient serum and complement injected intrathecally, behavioral scoring; format: in vivo; settings: for Behavioral score: intragastric daily, ACT001 60 mg/kg, hormone 30 mg/kg
# Procedure: Meanwhile, before establishing NMO animal models, firstly, the spinal intrathecal catheterization was performed on Lewis rats, wherein an outlet could be placed at the spinal cord and at the first lumbar vertebra of the rat by controlling the length (7 cm) of a PE10 soft tube. For the Lewis rats after spinal intrathecal catheterization, they had no difference in behavior from normal rats the next day after the operation. Successfully modeled rats were divided into three groups, and 10 μL of each of the serum and complement system of an NMO patient was injected into the soft tubes in the rats for which the intubation was successful, and the supplementation was performed every four days. The administration regimen was as follows: the model control group (6 animals) was intragastrically administered normal saline every day for 15 consecutive days; the hormone group (8 animals) was intragastrically administered the methylprednisolone […] for injection every day at a dose of 30 mg/kg for 15 consecutive days; and the ACT001 group (6 animals) was intragastrically administered the ACT001 solution every day at a dose of 60 mg/kg for 15 consecutive days. The animal state was observed daily, and behavioral scores were recorded based on animal symptoms.
# 10 μL of each of the serum and complement system of an NMO patient was injected into the soft tubes in the rats for which the spinal intrathecal catheterization was successful, and the supplementation was performed every four days, thus establishing the NMO animal models. Model animals were randomized into three groups, namely: the normal saline group, the hormone (methylprednisolone sodium succinate for injection) group and the ACT001 group, and the administration regimen is as follows:
# Behavioral scoring was performed based on animal symptoms.
# The scoring criteria were as follows: • 0 point: no clinical symptoms; • 1 point: decreased tail tension or mild gait clumsiness; • 2 points: no tail tension or moderate gait abnormality; weakness of both hind limbs and recovery after being turned over passively; • 3 points: paralysis of both hind limbs. no recovery after being turned over passively, but capable of moving after stimulation; • 4 points: paralysis of both hind limbs. paralysis or weakened muscle strength of the forelimbs with urinary and fecal incontinence; • 5 points: moribund state or dead.
# Symptoms between two stages were measured as ±0.5.
# BV2 cells = experiment: Proliferation activity of microglial cell BV2 (MTT and CCK8 methods); format: cell-based; settings: Mus musculus
# Text: We then intended to use ACT001 for treating neuromyelitis optica.
# [2] = test system: IL-6 release by LPS-activated BV-2 cells; experiment: IL-6 release/expression after LPS activation of BV-2 (ELISA); format: cell-based; settings: for IL-6 expression in BV-2 cells: 1 μg/mL LPS
# Procedure: (§1) BV2 cells were digested, counted and plated in a 24-well plate at 1 mL and 20,000 cells per well, and the cells were then incubated overnight in an incubator at 5% CO2 and 37° C. 1 μg/mL LPS was added into each well for 1 h of action, and then ACT001 at different concentrations was added. Five experimental groups were set, namely: (1) control group; (2) ACT001-2.5 μM group; (3) ACT001-5 μM group; (4) ACT001-10 μM group; and (5) ACT001-20 μM group. After 8 h of action, the drug action was completed, the supernatant was collected and centrifuged at 12,000 rpm for 20 min, and then ELISA was performed according to the kit instructions.
# as §1, with “40,000” for “20,000”, “24” for “8”
# [3] = test system: TNF-α release by LPS-activated BV-2 cells; experiment: TNF-α release/expression after LPS activation of BV-2 (ELISA); format: cell-based; settings: for TNF-α expression in BV-2 cells: 1 μg/mL LPS
# Procedure: as §1, with “40,000” for “20,000”, “24” for “8”
# [4] = test system: NO release by LPS-activated BV-2 cells; experiment: NO release after LPS activation of BV-2; format: cell-based
# Text: 5. FIG. 5 is a graph showing the effect of ACT001 on NO expression (*P<0.05, ** P<0.01, *** P<0.001).
# [5] = LPS-activated BV-2, ACT001 10 μM, vs control group, fumarate
# [6] = LPS-stimulated microglial cells, concentration not given, fumarate
Structure (SMILES),Behavioral score ([1]; day 0 of treatment) [points],Behavioral score ([1]; day 1 of treatment) [points],Behavioral score ([1]; day 2 of treatment) [points],Behavioral score ([1]; day 3 of treatment) [points],Behavioral score ([1]; day 4 of treatment) [points],Behavioral score ([1]; day 5 of treatment) [points],Behavioral score ([1]; day 6 of treatment) [points],Behavioral score ([1]; day 7 of treatment) [points],Behavioral score ([1]; day 8 of treatment) [points],Behavioral score ([1]; day 9 of treatment) [points],Behavioral score ([1]; day 10 of treatment) [points],Behavioral score ([1]; day 11 of treatment) [points],Behavioral score ([1]; day 12 of treatment) [points],Behavioral score ([1]; day 13 of treatment) [points],Behavioral score ([1]; day 14 of treatment) [points],further results
"C[C@H]1C[C@@H]2[C@H]([C@@H](O)C[C@@]3(C)[C@H]2CC[C@]3(O)C(=O)COC(=O)CCC(=O)O)[C@@]2(C)C=CC(=O)C=C12 [Hormone, methylprednisolone sodium succinate, reference compound]",0.00 ± 0.00,0.63 ± 0.64,0.50 ± 0.38,0.44 ± 0.32,0.13 ± 0.23,1.75 ± 0.46,0.88 ± 0.23,0.63 ± 0.35,0.38 ± 0.23,2.06 ± 0.42,2.06 ± 0.42,0.88 ± 0.35,2.19 ± 0.26,2.19 ± 0.59,1.00 ± 0.38,"Behavioral score (Table 3, major research results) ([1]; 20 Lewis rats, female, intragastrically once daily for 15 times): group was 2.0 ± 0.3. points; Behavioral score ([1]; day 15 of treatment): 2.31 ± 0.26 points; Behavioral score ([1]; day 15 of treatment, listed as hormone): 2.31±0.26 points"
"CC1=C2CC[C@@](C)(O)[C@@H]2[C@H]2OC(=O)[C@@H](CN(C)C)[C@@H]2CC1.O=C(O)/C=C/C(=O)O [ACT001, (3R,3aS,9R,9aS,9bS)-3-((dimethylamino)methyl)-9-hydroxy-6,9-dimethyl-3,3a,4,5,7,8,9,9a-octahydroazuleno[4,5-b]furan-2(9bH)-one fumarate]",0.00 ± 0.00,0.42 ± 0.20,0.17 ± 0.26,0.17 ± 0.26,0.00 ± 0.00,1.17 ± 0.68,1.00 ± 0.45,0.83 ± 0.68,0.33 ± 0.26,2.08 ± 0.86,1.25 ± 0.61,0.50 ± 0.00,2.00 ± 0.32,1.92 ± 0.38,1.17 ± 0.26,"IC50 (BV2 cells; BV-2, MTT/CCK8, read-out: IC50, inhibition of proliferation of BV2 cells): 23.6 µM; IC90 (BV2 cells; BV-2, read-out: IC90, in vitro activity inhibition against BV2 cells): 99.1 ± 10.2 µM; IL-6 expression in BV-2 cells ([2]; ACT001 20 μM, p<0.001 vs control): significantly reduced; IL-6 expression in BV-2 cells ([2]; all ACT001 groups (2.5, 5, 10, 20 μM), dose-dependent trend): reduce IL-6 expression; release/expression of IL-6 [2, 5]: remarkably reduce; also recorded: significantly reduced; release of IL-6 [2, 6]: significantly reduced; TNF-α expression in BV-2 cells ([3]; ACT001 2.5, 5 and 10 μM dose groups, dose-dependent trend (FIG. 4)): reduce TNF-α expression; TNF-α expression in BV-2 cells ([3]; all ACT001 dose groups (2.5-20 μM), p<0.001 vs control (text on FIG. 3)): significantly reduced; release/expression of TNF-α [3, 5]: remarkably reduce; also recorded: significantly reduced; release of TNF-α [3, 6]: significantly reduced; pathological release of microglial cells NO ([4]; ACT001 5 μM (FIG. 5)): significantly could reduce; release of NO ([4]; LPS-activated microglia, ACT001 10 μM): remarkably reduce; release of NO [4, 6]: significantly reduced; tolerance of animals during administration ([1]; ACT001 60 mg/kg intragastric daily, 15 days): well tolerated; disease symptoms / behavioral scores compared to the normal saline control group ([1]; ACT001 60 mg/kg intragastric daily, 15 days, fumarate, 60 mg/kg): significantly alleviated; also recorded: significantly reduce the behavioral scores; also recorded: significantly relieve clinical symptoms; effect compared to the hormone treatment group ([1]; ACT001 60 mg/kg vs methylprednisolone 30 mg/kg, intragastric, 15 days, fumarate): not weaker than that of hormone; also recorded: basically equivalent; Behavioral score ([1]; day 15 of treatment, fumarate): 2.00±0.32 points"
